Assay results taken from PubChem BioAssay AID1919009 (Molecular Pharmacology Branch, DTP, NCI, 2023).

Tested on: K24384-001-R-PDC complex spheroid growth
Assay: Anticancer human tumor K24384-001-R-PDC patient-derived pancreatic adenocarcinoma cell line growth inhibition [AhR]
Conditions: for IC50: curve of first compound; for viability, T/C: stronger effect = lower value
How it was run: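 Agents were dosed in half-log steps down from roughly clinical Cmax, or from 10 microM where Cmax was unknown, alone and with AhR antagonists. Read-out: percent test/control growth of tumor spheroids containing HUVEC and MSC stromal cells.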
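Throughout, for viability, T/C: percent of DMSO vehicle-treated spheroid viability set as 100%.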

`Nc1ccn(C2OC(CO)C(O)C2(F)F)c(=O)n1` (stereo not given) + Cc1ccccc1N=Nc1ccc(NC(=O)c2ccnn2C)c(C)c1 was tested, and the IC50 (second compound 0.1 µM) was 109 nM, the IC50 (second compound 0.316 µM) was 168 nM and the IC50 (second compound 1 µM) was 164 nM. The IC50 (second compound 3.16 µM) was 184 nM, the IC50 (second compound 10 µM) was 493 nM and the viability, T/C (second compound 0.1 µM, first compound 0.0316 µM) was 67.6%. The viability, T/C (second compound 0.1 µM, first compound 0.1 µM) was 51.8%, the viability, T/C (second compound 0.1 µM, first compound 0.316 µM) was 35.9% and the viability, T/C (second compound 0.1 µM, first compound 1 µM) was 29.9%. It also gave a viability, T/C (second compound 0.1 µM, first compound 3.16 µM) of 22.9%, a viability, T/C (second compound 0.1 µM, first compound 10 µM) of 20.6% and a viability, T/C (second compound 0.316 µM, first compound 0.0316 µM) of 61.8%. For the same compound, the viability, T/C (second compound 0.316 µM, first compound 0.1 µM) was 53.7%, the viability, T/C (second compound 0.316 µM, first compound 0.316 µM) was 44.5% and the viability, T/C (second compound 0.316 µM, first compound 1 µM) was 28%. It also gave a viability, T/C (second compound 0.316 µM, first compound 3.16 µM) of 19.2%, a viability, T/C (second compound 0.316 µM, first compound 10 µM) of 19.7% and a viability, T/C (second compound 1 µM, first compound 0.0316 µM) of 67.6%. It also gave a viability, T/C (second compound 1 µM, first compound 0.1 µM) of 57.4%, a viability, T/C (second compound 1 µM, first compound 0.316 µM) of 40.6% and a viability, T/C (second compound 1 µM, first compound 1 µM) of 25.8%. For the same compound, the viability, T/C (second compound 1 µM, first compound 3.16 µM) was 21.2%, the viability, T/C (second compound 1 µM, first compound 10 µM) was 15.1% and the viability, T/C (second compound 3.16 µM, first compound 0.0316 µM) was 58%. The viability, T/C (second compound 3.16 µM, first compound 0.1 µM) was 60.4%, the viability, T/C (second compound 3.16 µM, first compound 0.316 µM) was 41.9% and the viability, T/C (second compound 3.16 µM, first compound 1 µM) was 25.9%. For the same compound, the viability, T/C (second compound 3.16 µM, first compound 3.16 µM) was 20.5%, the viability, T/C (second compound 3.16 µM, first compound 10 µM) was 17.1% and the viability, T/C (second compound 10 µM, first compound 0.0316 µM) was 69.3%. It also gave a viability, T/C (second compound 10 µM, first compound 0.1 µM) of 63.2%, a viability, T/C (second compound 10 µM, first compound 0.316 µM) of 60% and a viability, T/C (second compound 10 µM, first compound 1 µM) of 35.3%. The viability, T/C (second compound 10 µM, first compound 3.16 µM) was 28.7% and the viability, T/C (second compound 10 µM, first compound 10 µM) was 20.1%.
